Assay results taken from ChEMBL document CHEMBL1201862, “PubChem BioAssay data set” (2004).
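Values below derive from 48-hour exposures of cells grown in 96-well plates, with endpoints linearly interpolated between the two concentrations bracketing the appropriate inhibition level. At the GI50, growth is halved.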 The source made the active and inactive calls. Rule as the data show it: active = GI50 up to about 1.1 µM and inactive = higher.

Legend:
Test in all cases: DTP human tumour cell line panel, 48 h
SF-268 = tested on: SF-268
SK-MEL-2 = tested on: SK-MEL-2
SK-MEL-5 = tested on: SK-MEL-5
A498 = tested on: A498
NCI/ADR-RES = tested on: NCI/ADR-RES
HOP-92 = tested on: HOP-92
RPMI-8226 = tested on: RPMI-8226
OVCAR-3 = tested on: OVCAR-3
UACC-257 = tested on: UACC-257
NCI-H522 = tested on: NCI-H522
T47D = tested on: T47D
M14 = tested on: M14
U-251 = tested on: U-251
DU-145 = tested on: DU-145
UACC-62 = tested on: UACC-62
UO-31 = tested on: UO-31
MDA-N = tested on: MDA-N
SF-539 = tested on: SF-539
LOX IMVI = tested on: LOX IMVI
IGROV-1 = tested on: IGROV-1
COLO 205 = tested on: COLO 205
NCI-H23 = tested on: NCI-H23
HCT-116 = tested on: HCT-116
MCF7 = tested on: MCF7
OVCAR-8 = tested on: OVCAR-8
SK-OV-3 = tested on: SK-OV-3
OVCAR-4 = tested on: OVCAR-4
K562 = tested on: K562
HT-29 = tested on: HT-29
NCI-H460 = tested on: NCI-H460
KM12 = tested on: KM12
SNB-75 = tested on: SNB-75
HCT-15 = tested on: HCT-15
SNB-19 = tested on: SNB-19
BT-549 = tested on: BT-549
MOLT-4 = tested on: MOLT-4
A549 = tested on: A549
TK-10 = tested on: TK-10
786-0 = tested on: 786-0
CAKI-1 = tested on: CAKI-1
Malme-3M = tested on: Malme-3M
ACHN = tested on: ACHN
SN12C = tested on: SN12C
SR = tested on: SR
HOP-62 = tested on: HOP-62
CCRF-CEM = tested on: CCRF-CEM
MDA-MB-231 = tested on: MDA-MB-231
OVCAR-5 = tested on: OVCAR-5
PC-3 = tested on: PC-3
MDA-MB-435 = tested on: MDA-MB-435
SW-620 = tested on: SW-620
HCC 2998 = tested on: HCC 2998
SK-MEL-28 = tested on: SK-MEL-28
RXF 393 = tested on: RXF 393
EKVX = tested on: EKVX
Hs-578T = tested on: Hs-578T
NCI-H226 = tested on: NCI-H226
HL-60 = tested on: HL-60
SF-295 = tested on: SF-295

## O=C(NNCC(F)(F)F)c1ccncc1
SF-268
  GI50: > 100 µM (inactive)
SK-MEL-2
  GI50: > 100 µM (inactive)
SK-MEL-5
  GI50: > 100 µM (inactive)
A498
  GI50: > 100 µM (inactive)
NCI/ADR-RES
  GI50: > 100 µM (inactive)
HOP-92
  GI50: > 100 µM (inactive)
RPMI-8226
  GI50: > 100 µM (inactive)
OVCAR-3
  GI50: > 100 µM (inactive)
UACC-257
  GI50: > 100 µM (inactive)
NCI-H522
  GI50: > 100 µM (inactive)
T47D
  GI50: > 100 µM (inactive)
M14
  GI50: > 100 µM (inactive)
U-251
  GI50: > 100 µM (inactive)
DU-145
  GI50: > 100 µM (inactive)
UACC-62
  GI50: > 100 µM (inactive)
UO-31
  GI50: > 100 µM (inactive)
MDA-N
  GI50: > 100 µM (inactive)
SF-539
  GI50: > 100 µM (inactive)
LOX IMVI
  GI50: > 100 µM (inactive)
IGROV-1
  GI50: > 100 µM (inactive)
COLO 205
  GI50: > 100 µM (inactive)
NCI-H23
  GI50: > 100 µM (inactive)
HCT-116
  GI50: > 100 µM (inactive)
MCF7
  GI50: > 100 µM (inactive)
OVCAR-8
  GI50: > 100 µM (inactive)
SK-OV-3
  GI50: > 100 µM (inactive)
OVCAR-4
  GI50: > 100 µM (inactive)
K562
  GI50: > 100 µM (inactive)
HT-29
  GI50: > 100 µM (inactive)
NCI-H460
  GI50: > 100 µM (inactive)
KM12
  GI50: > 100 µM (inactive)
SNB-75
  GI50: > 100 µM (inactive)
HCT-15
  GI50: > 100 µM
SNB-19
  GI50: > 100 µM (inactive)
BT-549
  GI50: > 100 µM (inactive)
MOLT-4
  GI50: > 100 µM (inactive)
A549
  GI50: > 100 µM (inactive)
TK-10
  GI50: > 100 µM (inactive)
786-0
  GI50: > 100 µM (inactive)
CAKI-1
  GI50: > 100 µM (inactive)
Malme-3M
  GI50: > 100 µM (inactive)
ACHN
  GI50: > 100 µM (inactive)
SN12C
  GI50: > 100 µM (inactive)
SR
  GI50: > 100 µM (inactive)
HOP-62
  GI50: > 100 µM (inactive)
CCRF-CEM
  GI50: > 100 µM (inactive)
MDA-MB-231
  GI50: > 100 µM (inactive)
OVCAR-5
  GI50: > 100 µM (inactive)
PC-3
  GI50: > 100 µM (inactive)
MDA-MB-435
  GI50: > 100 µM (inactive)
SW-620
  GI50: > 100 µM (inactive)
HCC 2998
  GI50: > 100 µM (inactive)
SK-MEL-28
  GI50: > 100 µM (inactive)
RXF 393
  GI50: > 100 µM (inactive)
EKVX
  GI50: > 100 µM (inactive)
Hs-578T
  GI50: > 100 µM (inactive)
NCI-H226
  GI50: > 100 µM (inactive)
HL-60
  GI50: > 100 µM (inactive)
SF-295
  GI50: > 100 µM (inactive)

## CC(C)=CCCC(C)CCOS(=O)C(F)(F)F (configuration not stated)
SF-268
  GI50: 17.7 µM (inactive)
SK-MEL-2
  GI50: 16.9 µM (inactive)
SK-MEL-5
  GI50: 15.8 µM (inactive)
A498
  GI50: 20.8 µM (inactive)
NCI/ADR-RES
  GI50: 4.16 µM (inactive)
HOP-92
  GI50: 18.7 µM (inactive)
RPMI-8226
  GI50: 29.4 µM (inactive)
OVCAR-3
  GI50: 11.2 µM (inactive)
UACC-257
  GI50: 19.5 µM (inactive)
NCI-H522
  GI50: 1.71 µM (inactive)
T47D
  GI50: 43.7 µM (inactive)
M14
  GI50: 1.35 µM (inactive)
U-251
  GI50: 9.66 µM (inactive)
DU-145
  GI50: 35.3 µM (inactive)
UACC-62
  GI50: 8.81 µM (inactive)
UO-31
  GI50: 13.1 µM (inactive)
MDA-N
  GI50: 1.6 µM (inactive)
SF-539
  GI50: 31.3 µM (inactive)
LOX IMVI
  GI50: 16.3 µM (inactive)
IGROV-1
  GI50: 12.8 µM (inactive)
COLO 205
  GI50: 4.7 µM (inactive)
NCI-H23
  GI50: 2.58 µM (inactive)
HCT-116
  GI50: 12.6 µM (inactive)
MCF7
  GI50: 34.7 µM (inactive)
OVCAR-8
  GI50: 6.78 µM (inactive)
SK-OV-3
  GI50: 22.1 µM (inactive)
OVCAR-4
  GI50: 6.59 µM (inactive)
K562
  GI50: 3.78 µM (inactive)
HT-29
  GI50: 5.12 µM (inactive)
NCI-H460
  GI50: 16.1 µM (inactive)
KM12
  GI50: 88.7 µM (inactive)
SNB-75
  GI50: 20.5 µM (inactive)
HCT-15
  GI50: 2.49 µM
SNB-19
  GI50: 22.1 µM (inactive)
BT-549
  GI50: 5.24 µM (inactive)
MOLT-4
  GI50: 2.58 µM (inactive)
A549
  GI50: 22.9 µM (inactive)
TK-10
  GI50: > 100 µM (inactive)
786-0
  GI50: > 100 µM (inactive)
CAKI-1
  GI50: 25.2 µM (inactive)
Malme-3M
  GI50: 3.15 µM (inactive)
ACHN
  GI50: 11.4 µM (inactive)
SN12C
  GI50: 7.93 µM (inactive)
SR
  GI50: 1.92 µM (inactive)
HOP-62
  GI50: 70.1 µM (inactive)
CCRF-CEM
  GI50: 4.29 µM (inactive)
MDA-MB-231
  GI50: 16.6 µM (inactive)
OVCAR-5
  GI50: 11 µM (inactive)
PC-3
  GI50: 18 µM (inactive)
MDA-MB-435
  GI50: 4.18 µM (inactive)
SW-620
  GI50: 3.29 µM (inactive)
HCC 2998
  GI50: 13.2 µM (inactive)
SK-MEL-28
  GI50: 11 µM (inactive)
RXF 393
  GI50: 1.89 µM (inactive)
EKVX
  GI50: 10.4 µM (inactive)
Hs-578T
  GI50: 1.16 µM (inactive)
NCI-H226
  GI50: 20 µM (inactive)
HL-60
  GI50: 2.88 µM (inactive)
SF-295
  GI50: 25.1 µM (inactive)

## CCCCCCCCCCCCCCCCCCNc1ccn(C2OC(COP(=O)(O)OCC(COP(=O)(O)OCC3OC(n4cc(C)c(=O)[nH]c4=O)CC3N=[N+]=[N-])OCCCCCCCCCCCCCCCCCC)C(O)C2O)c(=O)n1 (configuration not stated)
SF-268
  GI50: 50.6 µM (inactive)
SK-MEL-2
  GI50: > 100 µM (inactive)
SK-MEL-5
  GI50: 86.5 µM (inactive)
A498
  GI50: > 100 µM (inactive)
NCI/ADR-RES
  GI50: > 100 µM (inactive)
HOP-92
  GI50: 20.3 µM (inactive)
RPMI-8226
  GI50: 7.46 µM (inactive)
OVCAR-3
  GI50: > 100 µM (inactive)
UACC-257
  GI50: 50.1 µM (inactive)
NCI-H522
  GI50: 12.6 µM (inactive)
T47D
  GI50: 46.7 µM (inactive)
M14
  GI50: > 100 µM (inactive)
U-251
  GI50: 12.8 µM (inactive)
DU-145
  GI50: > 100 µM (inactive)
UACC-62
  GI50: 49.5 µM (inactive)
UO-31
  GI50: 17.7 µM (inactive)
MDA-N
  GI50: > 100 µM (inactive)
SF-539
  GI50: 27 µM (inactive)
LOX IMVI
  GI50: 21.2 µM (inactive)
IGROV-1
  GI50: 52.2 µM (inactive)
COLO 205
  GI50: 54.5 µM (inactive)
NCI-H23
  GI50: 77.4 µM (inactive)
HCT-116
  GI50: 56.8 µM (inactive)
MCF7
  GI50: 34.4 µM (inactive)
OVCAR-8
  GI50: 60.5 µM (inactive)
SK-OV-3
  GI50: > 100 µM (inactive)
OVCAR-4
  GI50: 70.5 µM (inactive)
K562
  GI50: > 100 µM (inactive)
HT-29
  GI50: 28.5 µM (inactive)
NCI-H460
  GI50: 54.3 µM (inactive)
KM12
  GI50: 38.5 µM (inactive)
SNB-75
  GI50: 49 µM (inactive)
HCT-15
  GI50: 34 µM
SNB-19
  GI50: 19.4 µM (inactive)
BT-549
  GI50: 90.4 µM (inactive)
MOLT-4
  GI50: 41.5 µM (inactive)
A549
  GI50: 51.6 µM (inactive)
TK-10
  GI50: > 100 µM (inactive)
786-0
  GI50: 54.1 µM (inactive)
CAKI-1
  GI50: > 100 µM (inactive)
Malme-3M
  GI50: 27 µM (inactive)
ACHN
  GI50: > 100 µM (inactive)
SN12C
  GI50: > 100 µM (inactive)
SR
  GI50: > 100 µM (inactive)
HOP-62
  GI50: > 100 µM (inactive)
CCRF-CEM
  GI50: > 100 µM (inactive)
MDA-MB-231
  GI50: 44.3 µM (inactive)
OVCAR-5
  GI50: 76.9 µM (inactive)
PC-3
  GI50: 29.4 µM (inactive)
MDA-MB-435
  GI50: 87.1 µM (inactive)
SW-620
  GI50: > 100 µM (inactive)
HCC 2998
  GI50: 99.1 µM (inactive)
SK-MEL-28
  GI50: > 100 µM (inactive)
RXF 393
  GI50: 51.6 µM (inactive)
EKVX
  GI50: > 100 µM (inactive)
Hs-578T
  GI50: > 100 µM (inactive)
NCI-H226
  GI50: > 100 µM (inactive)
HL-60
  GI50: > 100 µM (inactive)
SF-295
  GI50: > 100 µM (inactive)
